Measurements reported in US4465668A, “Method for improving intestinal absorption of cephalosporin derivatives” (Asahi Kasei Kogyo Kabushiki Kaisha, priority 1981, dated 1984).

Experiment: Absorption test: blood concentration after oral administration to rats
Conditions: rat; for Blood Concentration of Compound (III) / Blood Concentration of Compound (V) / Blood Concentration of Compound (VII) / Blood Concentration of Compound (VIII) / Blood Concentration of Compound (VI) / Blood Concentration of Compound (IV) / Blood Concentration of Compound (IX): suspended in 0.7% CMC; for Blood Concentration of Compound (III) / Blood Concentration of Compound (V) / Blood Concentration of Compound (VII) / Blood Concentration of Compound (VIII) / Blood Concentration of Compound (II) / Blood Concentration of Compound (VI) / Blood Concentration of Compound (IV) / Blood Concentration of Compound (IX): group average; for Blood concentration of Compound (I): suspended in 0.7% CMC aqueous solution, group average (5 animals); for Blood Concentration of Compound (II): dissolved in buffer aqueous solution pH 7
Method: The absorption test of the compounds were measured by the following methods.
Male Wistar rats weighing 180-250 g were fed with only water overnight. The next day the rats were orally administered with 50 mg/kg of a test compound which was suspended in a 0.7% CMC aqueous solution. The concentration of the compound in blood of the tested animals (one group consisting of 5 animals) was measured 0.5, 1, 2 and 4 hours after the administration by Bioassay method by using Bacillus subtilis ATCC 6633 strain as an indicator bacteria. In the measurement, an ordinary culture medium was employed, and the preparation of the standard solution and other method were carried out in according to Japanese Antibiotical Pharmaceutical Standards. Further, the concentration of the compound in blood was also measured by high performance liquid chromatography. The blood concentration shown in the examples was an average value of each animal group.
The absorption test of 7-[2-(2-thienyl)-acetoamido]-3-[2-(L-prolyl-L-lysylaminomethyl-1,3,4-thiadiazolyl)-thiomethyl]-3-cephem-4-carboxylic acid formic acid salt was carried out by orally administering the salt which was dissolved in a buffer aqueous solution having the pH of 7. The results are as follows:
The same procedures as described in Example 8 were repeated except that other oligopeptides were employed instead of the α-tert-butyloxycarbonyl-L-prolyl-ε-tert-butyloxycarbonyl-L-lysine. The absorption test of these compounds thus obtained was carried out in the same manner as described in Example 8.

Cc1nnc(SCC2=C(C(=O)OCOC(=O)[C@H](CCCCN)NC(=O)[C@@H](N)CC(C)C)N3C(=O)C(NC(=O)Cc4csc(N)n4)C3SC2)s1.Cl (stereo partly drawn) [Example 15, 7-[2-(2-amino-4-thiazolyl)acetoamido-3-(5-methyl-1,3,4-thiadiazolyl)thiomethyl]-3-cephem-4-carboxylic acid L-leucyl-L-lysyloxymethyl ester hydrochloric acid salt]
Blood Concentration of Compound (III) (0.5 hr after oral 50 mg/kg): 1.96 µg/mL | Blood Concentration of Compound (III) (1 hr after oral 50 mg/kg): 2.37 µg/mL | Blood Concentration of Compound (III) (2 hrs after oral 50 mg/kg): 1.03 µg/mL | Blood Concentration of Compound (III) (4 hrs after oral 50 mg/kg): 0.24 µg/mL

CO/N=C(\C(=O)N[C@@H]1C(=O)N2C(C(=O)O)=C(COC(C)=O)CS[C@H]12)c1csc(NC(=O)[C@H](Cc2ccccc2)NC(=O)[C@@H](N)CC(C)C)n1.O=CO [Example 22, 7β-[2-(2-L-leucyl-L-phenylalanylamidothiazol-4-yl)-(Z)-2-methoxyiminoacetoamido]cephalosporanic acid formic acid salt]
Blood Concentration of Compound (V) (0.5 hr after oral 50 mg/kg): 1.69 µg/mL | Blood Concentration of Compound (V) (1 hr after oral 50 mg/kg): 1.83 µg/mL | Blood Concentration of Compound (V) (2 hrs after oral 50 mg/kg): 1.53 µg/mL | Blood Concentration of Compound (V) (4 hrs after oral 50 mg/kg): 1.03 µg/mL

CO/N=C(\C(=O)N[C@@H]1C(=O)N2C(C(=O)O)=CCS[C@H]12)c1csc(NC(=O)[C@H](Cc2ccccc2)NC(=O)[C@@H](N)CCSC)n1.O=CO [Example 27, 7β-[2-(2-L-methionyl-L-phenylalanylamidothiazol-4-yl)-(Z)-2-methoxyiminoacetamido]-3-cephem-4-carboxylic acid formic acid salt]
Blood Concentration of Compound (VII) (0.5 hr after oral 50 mg/kg): 2.13 µg/mL | Blood Concentration of Compound (VII) (1 hr after oral 50 mg/kg): 1.84 µg/mL | Blood Concentration of Compound (VII) (2 hrs after oral 50 mg/kg): 1.00 µg/mL | Blood Concentration of Compound (VII) (4 hrs after oral 50 mg/kg): 0.21 µg/mL

CC(C)C[C@H](N)C(=O)N[C@@H](Cc1ccccc1)C(=O)OC(C(=O)NC1C(=O)N2C(C(=O)O)=C(CSc3nnnn3C)CS[C@H]12)c1ccccc1.O=CO (stereo partly drawn) [Example 1, 7-D-(O-L-leucyl-L-phenylalanyl)-mandelamido-3-(1-methyl-1H-tetrazol-5-yl-thiomethyl)-3-cephem-4-carboxylic acid formic acid salt]
Blood concentration of Compound (I) (0.5 hr after oral 50 mg/kg): 4.51 µg/mL | Blood concentration of Compound (I) (1 hr after oral 50 mg/kg): 3.70 µg/mL | Blood concentration of Compound (I) (2 hrs after oral 50 mg/kg): 1.93 µg/mL | Blood concentration of Compound (I) (4 hrs after oral 50 mg/kg): 0.83 µg/mL

COC1(NC(=O)CSCC#N)C(=O)N2C(C(=O)OCOC(=O)[C@H](CCCCN)NC(=O)[C@@H](N)CC(C)C)=C(CSc3nnnn3C)CSC21.Cl (stereo partly drawn) [Example 29, 7β-[(cyanomethyl)thio]acetoamido-7α-methoxy-3-[(1-methyl-1H-tetrazol-5-yl)thio]methyl-3-cephem-4-carboxylic acid L-leucyl-L-lysyloxymethyl ester hydrochloric acid salt]
Blood Concentration of Compound (VIII) (0.5 hr after oral 50 mg/kg): 3.14 µg/mL | Blood Concentration of Compound (VIII) (1 hr after oral 50 mg/kg): 2.37 µg/mL | Blood Concentration of Compound (VIII) (2 hrs after oral 50 mg/kg): 1.04 µg/mL | Blood Concentration of Compound (VIII) (4 hrs after oral 50 mg/kg): 0.32 µg/mL

NCCCC[C@H](NC(=O)[C@@H]1CCCN1)C(=O)NCc1nnc(SCC2=C(C(=O)O)N3C(=O)C(NC(=O)Cc4cccs4)C3SC2)s1.O=CO (stereo partly drawn) [Example 8, 7-[2-(2-thienyl)-acetoamido]-3-[2-(L-prolyl-L-lysylaminomethyl-1,3,4-thiadiazolyl)-thiomethyl]-3-cephem-4-carboxylic acid formic acid salt]
Blood Concentration of Compound (II) (0.5 hr after oral 50 mg/kg): 2.14 µg/mL | Blood Concentration of Compound (II) (1 hr after oral 50 mg/kg): 1.77 µg/mL | Blood Concentration of Compound (II) (2 hrs after oral 50 mg/kg): 1.04 µg/mL | Blood Concentration of Compound (II) (4 hrs after oral 50 mg/kg): 0.07 µg/mL

CO/N=C(\C(=O)N[C@@H]1C(=O)N2C(C(=O)O)=C(CSc3nnnn3C)CS[C@H]12)c1csc(NC(=O)[C@H](CCCCN)NC(=O)[C@@H](N)CC(C)C)n1.O=CO [Example 25, 7β-[2-(2-L-leucyl-L-lysylamidothiazol-4-yl)-(Z)-2-methoxyiminoacetoamido]-3-[(1-methyl-1H-tetrazol-5-yl)-thiomethyl]-3-cephem-4-carboxylic acid formic acid salt]
Blood Concentration of Compound (VI) (0.5 hr after oral 50 mg/kg): 2.11 µg/mL | Blood Concentration of Compound (VI) (1 hr after oral 50 mg/kg): 1.67 µg/mL | Blood Concentration of Compound (VI) (2 hrs after oral 50 mg/kg): 1.10 µg/mL | Blood Concentration of Compound (VI) (4 hrs after oral 50 mg/kg): < 0.1 µg/mL

Cn1nnnc1SCC1=C(C(=O)O)N2C(=O)C(NC(=O)[C@H](OC(=O)[C@@H](N)Cc3ccccc3)c3ccccc3)C2SC1.O=CO (stereo partly drawn) [compound 1, 7-D-(O-L-phenylalanyl)-mandelamido-3-(1-methyl-1H-tetrazol-5-yl-thiomethyl)-3-cephem-4-carboxylic acid formic acid salt, reference compound]
Blood concentration of Compound (I) (0.5 hr after oral 50 mg/kg): 0.21 µg/mL | Blood concentration of Compound (I) (1 hr after oral 50 mg/kg): 0.23 µg/mL | Blood concentration of Compound (I) (2 hrs after oral 50 mg/kg): 0.08 µg/mL | Blood concentration of Compound (I) (4 hrs after oral 50 mg/kg): 0.02 µg/mL

CC(=O)OCC1=C(C(=O)O)N2C(=O)[C@@H](NC(=O)CSCCNC(=O)[C@H](CC(C)C)NC(=O)[C@@H](N)Cc3ccccc3)[C@H]2SC1.O=C(O)C(F)(F)F [Example 19, 7β-(2-L-phenylalanyl-L-leucylamidoethylthioacetoamido)-3-acetoxymethyl-3-cephem-4-carboxylic acid trifluoroacetic acid salt]
Blood Concentration of Compound (IV) (0.5 hr after oral 50 mg/kg): 1.07 µg/mL | Blood Concentration of Compound (IV) (1 hr after oral 50 mg/kg): 0.21 µg/mL | Blood Concentration of Compound (IV) (2 hrs after oral 50 mg/kg): 0.09 µg/mL | Blood Concentration of Compound (IV) (4 hrs after oral 50 mg/kg): < 0.01 µg/mL

Cc1nnc(SCC2=C(C(=O)OCOC(=O)[C@H](CCCCN)NC(=O)[C@@H](N)CC(C)C)N3C(=O)C(NC(=O)Cn4cnnn4)C3SC2)s1.Cl (stereo partly drawn) [Example 35, 7-[1-(1H)-tetrazolylacetamido]-3-[2-(5-methyl-1,3,4-thiazolyl)-thiomethyl]-3-cephem-4-carboxylic acid L-leucyl-L-lysyloxymethyl ester hydrochloric acid salt]
Blood Concentration of Compound (IX) (0.5 hr after oral 50 mg/kg): 5.64 µg/mL | Blood Concentration of Compound (IX) (1 hr after oral 50 mg/kg): 3.84 µg/mL | Blood Concentration of Compound (IX) (2 hrs after oral 50 mg/kg): 1.87 µg/mL | Blood Concentration of Compound (IX) (4 hrs after oral 50 mg/kg): 0.74 µg/mL
